Entries after “also recorded” stand apart in the source; their conditions may differ. Read-outs that look alike come from different tables or passages of the source.
How the values were obtained:
[1] = system: E. amylovora; experiment: Plate diffusion assay in LB plates; type: cell-based, Erwinia amylovora
Source text: Two assays were used for the antimicrobial test of 0617-T307 cell broth and metabolites. One is plate diffusion assay and the other one is microplate assay. LB plate was used for the plate diffusion assay of the antimicrobial activity of RejuAgro A containing fractions and cell broths against E. amylovora (Table 3).

[2] = system: Erwinia amylovora 273; experiment: In vitro plate assay of flash fractions; type: cell-based; details: E. amylovora 273 on 50% LB plate, 2 μL DMSO solution, one day
Experimental: The generated fractions were applied for the subsequent plate assays. One mL of each fraction was picked up into a 1.5 mL test tube and vacuum dried by an Eppendorf vacuum concentrator. The dried sample was dissolved in 50 μL DMSO, of which 2 μL was used in the plate assay. Briefly, Erwinia amylovora 273 was streaked onto LB plate to grow at 28° C. incubator and single colony obtained after 24 h was inoculated into 5 mL LB media to allow an overnight growth at 28° C. shaker at 200 rpm. The bacteria were diluted 1:100 in sterile water, of which 225 μL was plated onto 50% LB plate (Tryptone, 5.0 g/L; Yeast extract, 2.5 g/L; NaCl, 5.0 g/L, Agar, 15 g/L). After dried in the biosafety cabinet for 10 mins, the DMSO solution of each fraction was then distributed to its pre-labeled section of the petri dish and allowed to dry for another 10 min. Along with the assay, DMSO and Kasugamycin were used as negative and positive controls, respectively. The plates were then incubated at 28° C. incubator and the inhibitory zone was checked one day later.
The generated fractions were applied for the subsequent plate assays. One mL of each fractions was picked up into a 1.5 mL test tube and vacuum dried by an Eppendorf vacuum concentrator. The dried sample was dissolved in 50 μL DMSO, of which 2 μL was used in the plate assay. […]

[3] = system: Xanthomonas axonopodis pv. citri N40-SO5; experiment: Agar plate spot assay (inhibitory zone); type: cell-based; details: Xac N40-SO5, NA
[4] = system: Xanthomonas axonopodis pv. citri-Miami XC2002-00010; experiment: Agar plate spot assay (inhibitory zone); type: cell-based; details: Xac-Miami XC2002-00010, NA
[5] = system: Ralstonia solanacearum K60; type: cell-based; details: LB
[6] = system: Pseudomonas syringae pv. tomato PT30; experiment: Agar plate spot assay (inhibitory zone); type: cell-based; details: P. syringae pv. tomato PT30, LB
Source text: (§1) The HPLC isolation and purification of the ethyl acetate extracts of acidified cell broth of Pseudomonas sp. 0617-T307 identified two antimicrobial compounds (Rt22.9 and Rt25.0) from flash fraction T5058 and one antimicrobial compound (Rt18.9) from flash fraction T7882. Two μL of DMSO, Rt18.9, Rt22.9 or Rt25.0 were spotted on agar plates respectively grown with different bacterial strains and the inhibitory zone was further examined (Table 8).

[7] = system: Pectobacterium atrosepticum 942; experiment: Agar plate spot assay (inhibitory zone); type: cell-based; details: LB
Source text: as §1

[8] = system: Xanthomonas arboricola pv. Juglandis 417; experiment: Agar plate spot assay (inhibitory zone); type: cell-based; details: X. arboricola pv. Juglandis 417, NA
Source text: as §1

[9] = system: Pectobacterium carotovorum subsp. brasiliensis 944; experiment: Agar plate spot assay (inhibitory zone); type: cell-based; details: P. carotovorum subsp. brasiliensis 944, LB
Source text: as §1

[10] = system: Xanthomonas arboricola pv. Juglandis 219; experiment: Agar plate spot assay (inhibitory zone); type: cell-based; details: X. arboricola pv. Juglandis 219, NA
Source text: as §1

[11] = system: Pseudomonas syringae pv syringae 7046; experiment: Agar plate spot assay (inhibitory zone); type: cell-based; details: P. syringae pv syringae 7046, LB
Source text: as §1

[12] = system: Pseudomonas savastanoi pv. savastanoi 01-26; experiment: Agar plate spot assay (inhibitory zone); type: cell-based; details: P. savastanoi pv. savastanoi 01-26, LB
Source text: as §1

[13] = system: Pseudomonas syringae pv. lachrymans 1188-1; experiment: Agar plate spot assay (inhibitory zone); type: cell-based; details: P. syringae pv. lachrymans 1188-1, LB
Source text: as §1

[14] = system: Erwinia amylovora 1189; experiment: Agar plate spot assay (inhibitory zone); type: cell-based; details: LB
Source text: as §1

[15] = system: Pectobacterium parmentieri UPP163 936; experiment: Agar plate spot assay (inhibitory zone); type: cell-based; details: LB
Source text: as §1

[16] = system: Clavibacter michiganensis subsp. michiganensis Cmm 0317; experiment: Agar plate spot assay (inhibitory zone); type: cell-based; details: LB, 2 to 5 days
[17] = system: Venturia inaequalis; experiment: Antifungal assay on amended PDA plates; type: cell-based; details: 200-1000 μg/mL in PDA plate; day 14 (figure)
Experimental: The fungus Venturia inaqualis that causes apple scab was maintained on PDA agar in the dark at room temperature (˜24° C.). A mixture of conidia and mycelia suspension (in 0.01 M PBS) was harvested from PDA (Potato dextrose agar). Ten μL the conidia and mycelia suspension were dropped onto biocontrol bacteria, RejuAgro A, or RejuAgro A amended plates. The control was PDA plates without the addition of the biocontrol bacteria or RejuAgro A or B. […]

[18] = Solubility in solvents; type: physicochemical
Experimental: Preparative HPLC (Prep-HPLC) purification of the fraction 3840 and 5054 lead to the discovery of 15 mg yellow colored compound RejuAgro A (Rt17.5) and 103.3 mg dark-green colored compound RejuAgro B, respectively. […] The structures of the two compounds have been investigated by High resolution mass spectrometry (HR-MS), infrared (IR), Ultraviolet (UV), 1D and 2D Nuclear magnetic resonance (NMR) as well as X-ray crystal structure analysis.

[19] = system: X. arboricola pv. Juglandis Xaj219; experiment: microbe, parasite or virus in culture; type: cell-based, Xanthomonas arboricola pv. Juglandis; details: Xanthomonas arboricola, read-out: Diameter of the zone of inhibition
[20] = system: R. solanacearum Pss; experiment: microbe, parasite or virus in culture; type: cell-based; details: Ralstonia solanacearum, read-out: Diameter of the zone of inhibition
[21] = system: X. arboricola pv. Juglandis Xaj417; experiment: microbe, parasite or virus in culture; type: cell-based, Xanthomonas arboricola pv. Juglandis; details: Xanthomonas arboricola, read-out: Diameter of the zone of inhibition
[22] = system: R. solanacearum K60; experiment: microbe, parasite or virus in culture; type: cell-based; details: Ralstonia solanacearum, K60, read-out: Diameter of the zone of inhibition
[23] = system: C. michiganensis subsp. Michiganensis Cmm382; experiment: Agar plate diffusion assay; type: cell-based, Clavibacter michiganensis subsp. michiganensis; details: Clavibacter michiganensis, read-out: Diameter of the zone of inhibition
[24] = system: C. michiganensis subsp. Michiganensis Cmm0317; experiment: Agar plate diffusion assay; type: cell-based, Clavibacter michiganensis subsp. michiganensis; details: Clavibacter michiganensis, read-out: Diameter of the zone of inhibition
[25] = system: C. michiganensis subsp. Michiganensis Cmm0690; experiment: Agar plate diffusion assay; type: cell-based, Clavibacter michiganensis subsp. michiganensis; details: Clavibacter michiganensis, read-out: Diameter of the zone of inhibition

Compound: C[C@H]1O[C@H](O[C@H]2[C@H](O)[C@@H](O)[C@@H](O)[C@H](O)[C@@H]2O)[C@@H](N)C[C@@H]1NC(=N)C(=O)O [Kasugamycin, reference compound]
- Diameter of the Inhibitory zone ([1]; concentration not given): 1.3 cm
- inhibitory zone / zone of clearance [2]: did show a zone of inhibition

Compound: CCCCCC(=O)NC(Cc1c[nH]c2ccccc12)C(=O)O (centres unmarked) [Rt25.0]
- Inhibitory zone (Yes/No) ([3]; 5 mg/mL): Yes
- Inhibitory zone (Yes/No) ([4]; 5 mg/mL): Yes
- Inhibitory zone (Yes/No) ([5]; 5 mg/mL): Yes
- Inhibitory zone (Yes/No) ([6]; 5 mg/mL): Yes
- Inhibitory zone (Yes/No) ([7]; 5 mg/mL): No
- Inhibitory zone (Yes/No) ([8]; 5 mg/mL): No
- Inhibitory zone (Yes/No) ([9]; 5 mg/mL): Yes
- Inhibitory zone (Yes/No) ([10]; 5 mg/mL): Yes
- Inhibitory zone (Yes/No) ([11]; 5 mg/mL): Yes
- Inhibitory zone (Yes/No) ([12]; 5 mg/mL): Yes
- Inhibitory zone (Yes/No) ([13]; 5 mg/mL): Yes
- Inhibitory zone (Yes/No) ([14]; 5 mg/mL): No
- Inhibitory zone (Yes/No) ([15]; 5 mg/mL): No
- Inhibitory zone (Yes/No) ([16]; 2 μL of 5 mg/mL spotted): Yes

Compound: CC(C)CC(=O)NC(Cc1c[nH]c2ccccc12)C(=O)O (centres unmarked) [Rt22.9]
- Inhibitory zone (Yes/No) ([3]; 10 mg/mL): No
- Inhibitory zone (Yes/No) ([4]; 10 mg/mL): No
- Inhibitory zone (Yes/No) ([5]; 10 mg/mL): Yes
- Inhibitory zone (Yes/No) ([6]; 10 mg/mL): Yes
- Inhibitory zone (Yes/No) ([7]; 10 mg/mL): No
- Inhibitory zone (Yes/No) ([8]; 10 mg/mL): No
- Inhibitory zone (Yes/No) ([9]; 10 mg/mL): No
- Inhibitory zone (Yes/No) ([10]; 10 mg/mL): No
- Inhibitory zone (Yes/No) ([11]; 10 mg/mL): Yes
- Inhibitory zone (Yes/No) ([12]; 10 mg/mL): Yes
- Inhibitory zone (Yes/No) ([13]; 10 mg/mL): Yes
- Inhibitory zone (Yes/No) ([14]; 10 mg/mL): No
- Inhibitory zone (Yes/No) ([15]; 10 mg/mL): No
- Inhibitory zone (Yes/No) ([16]; 2 μL of 10 mg/mL spotted): Yes

Compound: O=S(=O)([O-])[O-].[Cu+2] [copper sulfate, reference compound]
- growth of V. inaequalis on PDA plates [17]: no inhibition; also recorded: can grow

Compound: CC1=C(C2=C(C)C(=O)C(=O)NC2=O)C(=O)NC(=O)C1=O [RejuAgro B]
- solubility in dimethyl sulfoxide (DMSO) ([18]; DMSO): can be dissolved very well
- solubility in methanol and chloroform ([18]; methanol, chloroform): does not dissolve well
- zone of inhibition at 2000 µg/mL [19]: 0 mm
- zone of inhibition at 2000 µg/mL ([1]; Erwinia amylovora, 2 mg/mL, read-out: Diameter of the Inhibitory zone): 0 mm
- zone of inhibition at 2000 µg/mL [20]: 4 mm
- zone of inhibition at 2000 µg/mL [21]: 0 mm
- zone of inhibition at 2000 µg/mL [22]: 4 mm

Compound: CN[C@H](CC(C)C)C(=O)N[C@H]1C(=O)N[C@@H](CC(N)=O)C(=O)N[C@H]2C(=O)N[C@H]3C(=O)N[C@H](C(=O)N[C@H](C(=O)O)c4cc(O)cc(O)c4-c4cc3ccc4O)[C@H](O)c3ccc(c(Cl)c3)Oc3cc2cc(c3O[C@@H]2O[C@H](CO)[C@@H](O)[C@H](O)[C@H]2O[C@H]2C[C@](C)(N)[C@H](O)[C@H](C)O2)Oc2ccc(cc2Cl)[C@H]1O [Vancomycin]
- zone of inhibition at 5000 µg/mL [23]: 30 mm
- zone of inhibition at 5000 µg/mL [24]: 30 mm
- zone of inhibition at 5000 µg/mL [25]: 30 mm

From patent US12089595B2, “Pseudomonas strains and their metabolites to control plant diseases” (T3 Bioscience, Inc., priority 2020, dated 2024)
